According to patent publication US11026419B2, “Silver- and copper-chelating ionic liquids, polymers, and gels, and uses thereof” (Massachusetts Institute of Technology, priority 2016, dated 2021):

Columns and labels:
HEK cells = test: Cell viability assay, LDH release; type: cell-based, human; details: 24 hours treatment, at the higher concentrations tested
Description: The toxicity of the compounds towards human cells was tested using HEK cell lines (FIG. 5), which were cultured in DMEM medium and 10% Fetal Bovine Serum at 37° C. in 5% CO2. 5×10^4 cells were seeded into 96-well plates 24 hours before treatment. Incremental concentrations of ionic liquids (diluted 2×) were added into the wells for another 24 hours. The release of the cytosolic enzyme lactate dehydrogenase (LDH) was then measured, following the manual of Pierce LDH Cytotoxicity Assay Kit (Thermofisher, Mass., USA). Untreated cells (live cells) and cells treated with lysis buffer for 2 hours (dead cells) were used as the reference for normalization. All experiments were performed in triplicate. […] Experiments were repeated using an MTX assay with the trend in the results matching those of the LDH assay.

[1] = tested on: Pseudomonas aeruginosa (PA14); test: Antimicrobial sensitivity, colony forming units (CFU) of PA14; type: cell-based; details: PA14, compared with control samples (FIG. 2)
Text: Antimicrobial sensitivity experiments used Pseudomonas aeruginosa (PA14, FIG. 2) a gram-negative monoflagellated bacterium. This is a model bacterium for such studies as it is […] and is an opportunistic human pathogen, colonizing immunocompromised patients, such as those with cystic fibrosis, cancer, or AIDS [15].

PA14 = test: Turbidity of PA14 solutions as indication of bacterial growth; type: cell-based, Pseudomonas aeruginosa; details: PA14 solution with 10 uL IL (FIG. 3)

| Substance | reduced cell viability (HEK cells) [%] | drop in the colony-forming unit (CFU) [1] | turbidity / bacteria growth (PA14) |
| --- | --- | --- | --- |
| N-butyl(ethylenediaminium) bis(trifluoroethanesulfonyl)amide [[HButylen][Tf2N]] | ~50 |  |  |
| N-hexylethylenediaminium bis(trifluoroethanesulfonyl)amide [[HHex][Tf2N]] | ~50 | ~3 orders of magnitude | no turbidity |
